# Experimental data published in US12655365B2, “Low foam cleaning compositions” (ECOLAB USA INC., priority 2020, dated 2026).
# Key:
# E. coli (ATCC 11229) = assay: Antimicrobial evaluation, log reduction of microbial population; format: cell-based; conditions: pH 7, 500 ppm hard water, 120° F., about 30 seconds contact
# Protocol: The quaternary ammonium compounds were tested for antimicrobial efficacy against exemplary bacteria (E. coli and S. aureus) under different pH conditions. For this evaluation, various test solutions were prepared in 500 ppm hard water at a temperature of 120° F. The microbial population was contacted with the test composition for about 30 seconds. The microbial population was measured before and after the contacting step and the difference was taken to identify the log reduction. The quaternary ammonium compounds tested, their concentrations, and the corresponding log reductions are shown below in Table 2.
# [1] = Foam evaluation (foam height); format: physicochemical; conditions: 1200 ppm solution in water; 120° F.; additive with quaternary ammonium compound
# Protocol: The foaming properties of the quaternary ammonium compounds were evaluated and then tested for reduced foaming when traditional defoaming compounds were included. The foam height was determined with the following procedural steps: • 1. A 1200 ppm solution of the test composition was mixed in water. • 2. The foam height was measured immediately after mixing. • 3. The solution was agitated and the foam height was measured after 15 seconds. • 4. The solution was agitated and the solution was measured after another 45 seconds of agitation (60 seconds total since the solution was mixed). The temperature of the solution was at 120° F. for the duration of the test. As can been seen in FIGS. 1A and 1B, the various quaternary ammonium compounds tested provided significant foam height after mixing at after 15 seconds of agitation. The traditional defoamers had varying impacts on the foaming properties of the quaternary ammonium compounds.
# The ability of the polycarboxylic acids and/or salts to control the foam of different quaternary ammonium compounds was also tested. The same procedural steps outlined above were followed. […].
Compound,log reduction (E. coli (ATCC 11229); 30 ppm),log reduction (E. coli (ATCC 11229); 40 ppm),log reduction (E. coli (ATCC 11229); 50 ppm),reduction to the foaming of quaternary ammonium compounds [1]
"CCCCCCCCCC[N+](C)(C)CCCCCCCCCC.[Cl-] [Bardac 2250, didecyl dimethyl ammonium chloride]",3.33,5.02,6.71,
CC(=O)O [acetate],,,,did not
O=C([O-])c1ccccc1.[Na+] [sodium benzoate],,,,did not
O=S(=O)([O-])[O-].[Na+].[Na+] [sodium sulfate],,,,did not
